Test results as given in patent US20040147458A1, “Compositions to reduce exercise-induced swelling of joints” (priority 2003, published 2004).

Tests used:
Humans = test: Swollen, sore knee joints in human subjects taking ribose; type: in vivo
Source text: Non-runners can also experience swelling in the joints. One subject who works in construction and does a lot of lifting frequently has swollen knees with accompanying soreness. […] A heavy equipment operator has suffered from soreness in their knees for several years following an injury to the joint. […] The third subject is a competitive “strong man” who competes in such trials as lifting heavy rocks and pulling buses. In the course of their training and competition, they have stressed their knee joints, which are frequently swollen and sore. […] On one occasion, they ingested a dose of 30 grams of ribose and the soreness in their knees disappeared within twenty minutes.

Standard Bred horses = test: Joint swelling after racing in Standard Bred horses given ribose before and/or after each race; type: in vivo, horse
Source text: The dosage given should be adjusted carefully to each animal. It has been observed that the swelling reaction is variable; some horses have a great deal of swelling after each race and others are less affected. […] Beginning with a dose of 20 gm ribose, the dosages were adjusted upward. […] Although the weight of the horse was not a factor, the state of nourishment was important. Less well-nourished horses require less ribose for the prophylaxis and therapy of joint swelling. In those horses tested by Applicant, which had been maintained on the ribose-containing supplement, it was seen that a dosage of about 100 or 200 grams of ribose was required to prevent or reduce swelling. In all mammals it may be seen that increasing doses of ribose are necessary to provide the benefit of this invention. This seeming paradox may be due to the fact that mammals receiving ribose as a maintenance dietary supplement have more energy, run faster and thus sustain more acute exercise-related trauma to the joints. It must be stressed that whether or not horses are maintained on a ribose-containing dietary supplement such as that of Applicant, in order to obtain the benefits of this invention, the dosage and timing disclosed above must be followed. Twelve Standard Bred horses, three to eight years of age, were tested. […] The swelling was treated either with cold packs or rest. Time to recovery was approximately one hour to several days. In general, the horses were rested for three days and then exercised by jogging each day, running two miles and then increasing the miles to six to eight. The test horses were put on a schedule of ribose administration in a dosage of 40 gm before each race. […] Therefore, the standard procedure was to administer the optimal dose of ribose both before and after each race. […] Time to recovery of these animals was about ten hours. […] After the horses had been on ribose maintenance for a time, all required higher doses of ribose, up to 100 gm a dose given both before and after racing, in order to show a benefit.

[1] = system: Racing dogs, generally greyhounds; test: Joint swelling after racing in racing dogs given ribose before the race; type: in vivo, dog
Description: Racing dogs, generally greyhounds, are also susceptible to swollen joints after racing. […] The observed dosage for a horse was approximately 100 to 300 mg per kilogram body weight. Based on this observation, a greyhound weighing 65 pounds will benefit from a dose of about two to twelve grams of ribose which is approximately 65 to 300 mg per kilogram. The dosage should be given just before each race or hard workout. […] Administration can be by any convenient means. Ribose has a slightly sweet taste and dogs will readily drink a solution of ribose in water. Alternatively, the ribose solution can be sprayed into the dog's mouth for buccal absorption. […] As for horses, the ribose should not be given more than half an hour before the race or with other food or anything else that would delay absorption.

O=C[C@H](O)[C@H](O)[C@H](O)CO [ribose, D-Ribose]
symptoms of swollen and sore knee joints (Humans; competitive strong man, doses of five to ten grams): symptoms are lessened
time until soreness in knees disappeared (Humans; competitive strong man, single dose of 30 grams): twenty
knee soreness (Humans; construction worker with swollen knees, dose of about five grams): soreness subsides
knee achiness (Humans; heavy equipment operator, soreness after joint injury, five gram dose): effective to lessen the achiness
joint swelling after race (Standard Bred horses; 40 gm ribose before each race only, twelve horses): most of the animals still showed some joint swelling
time to recovery (Standard Bred horses; animals with moderate swelling despite ribose before and after race, cold packs applied): about ten
resumption of training (Standard Bred horses; compared with animals not given ribose before and after racing): able to resume training earlier
benefit on swelling, ribose alone (Standard Bred horses; easily absorbed dose of ribose alone given immediately before and immediately after each race): additional benefit was seen
dose required to show a benefit (Standard Bred horses; horses on ribose maintenance for a time, dose given both before and after racing): up to 100 gm
joint swelling after race (Standard Bred horses; optimal dose of ribose both before and after each race): the majority of the animals showed no swelling
fraction of animals showing moderate swelling (Standard Bred horses; optimal dose of ribose both before and after each race, cold packs applied): About one-third
side-effects (Standard Bred horses; ribose at suggested levels): no side-effects
attitude of the horses after a race (subjective measure) (Standard Bred horses; ribose given only before the race): willing to play and move around their stalls
prevention or reduction of joint swelling ([1]; high dose before the race only): adequate in most cases to prevent or reduce joint swelling
expected benefit on swollen joints after racing ([1]; proper dosage of ribose, about two to twelve grams for a 65 pound greyhound): expected to give the same benefit as is shown for horses
